Results taken from paper PMC6107088 (Inorganic chemistry, 2018).

Columns and labels:
[1] = target: yeast iso-1 cytochrome c WT* (pseudo-wild-type), ferric (Saccharomyces cerevisiae, UniProt P00044, C108S/K78A); test: equilibrium titration, Soret absorbance at […] and […] nm, one-site fit; assay type: binding
[2] = target: yeast iso-1 cytochrome c WT* (pseudo-wild-type), ferric (Saccharomyces cerevisiae, UniProt P00044, C108S/K78A/K79A/K85G/M86K); test: as above; assay type: binding
Lys80 = Lys80 (UniProt position 86, IPGTGKAFGGL); test: UV-vis; settings: ferric protein; Lys80/His18-ligated haem converting to H2O/His-ligated haem; cited from earlier work

Chain of yeast iso-1 cytochrome c WT* (pseudo-wild-type), ferric (Saccharomyces cerevisiae, UniProt P00044, C108S/K78A) (P00044 2-109 K78A/C108S): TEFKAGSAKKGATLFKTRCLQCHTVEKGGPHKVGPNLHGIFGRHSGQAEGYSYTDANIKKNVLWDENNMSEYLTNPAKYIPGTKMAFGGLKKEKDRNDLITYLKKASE
Chain of yeast iso-1 cytochrome c WT* (pseudo-wild-type), ferric (Saccharomyces cerevisiae, UniProt P00044, C108S/K78A/K79A/K85G/M86K) (P00044 2-109 K78A/K79A/K85G/M86K/C108S): as the sequence (P00044 2-109 K78A/C108S) above, with K78A, K84G, M85K counted along it

`c1c[nH]cn1` [imidazole] gave a Kd [1] of 2.78 mM and a Kd [2] of 2.33 mM.
In the case of “iso-1 cytochrome c, M80K# (K73A/K79G/M80K in WT* background) (Saccharomyces cerevisiae; K72A;K73A;K79G;M80K;C102S)”, the pKa (Lys80) is listed as 4.9 ± 0.2.
